Test results as given in patent EP0904079B1, “ANTIDIABETIC AGENTS” (MERCK & CO., INC., priority 1996, dated 1997).

Molecular target: T1, Human PPARδ (Homo sapiens, UniProt Q03181)
T1 construct: The full length human cDNA for PPARγ2 and PPARδ were subcloned into the PGEX-2T and PGEX-KT, respectively, expression vector; made in house; host or cells: E. coli
T1 sequence (Q03181 1-441): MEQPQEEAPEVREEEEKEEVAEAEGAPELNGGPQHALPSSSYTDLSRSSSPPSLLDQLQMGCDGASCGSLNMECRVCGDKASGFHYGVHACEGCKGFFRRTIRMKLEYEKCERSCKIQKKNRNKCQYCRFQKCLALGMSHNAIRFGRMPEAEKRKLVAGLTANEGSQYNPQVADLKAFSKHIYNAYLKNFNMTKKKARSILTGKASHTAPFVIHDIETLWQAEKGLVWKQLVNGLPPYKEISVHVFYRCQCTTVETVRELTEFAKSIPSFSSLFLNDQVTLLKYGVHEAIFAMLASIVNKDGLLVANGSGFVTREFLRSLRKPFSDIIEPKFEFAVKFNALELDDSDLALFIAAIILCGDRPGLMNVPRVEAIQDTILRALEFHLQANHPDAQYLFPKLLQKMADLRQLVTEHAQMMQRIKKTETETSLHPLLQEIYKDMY
Test: [3H2]Example 11 displacement assay (PPAR receptor binding assay)
Description: Human PPARγ2 and PPARδ, independently, were prepared as gst-fusion proteins in E. coli. The full length human cDNA for PPARγ2 and PPARδ were subcloned into the PGEX-2T and PGEX-KT, respectively, expression vector (Pharmacia). E. coli containing the plasmid were grown, induced, and then harvested by centrifugation. The resuspended pellet was broken in a French press and debris was removed by centrifugation at 12,000Xg. Receptors were purified from the supernatant by affinity chromatography on glutathione sepharose. After application to the column, and 1 wash, receptor was eluted with glutathione. Glycerol was added to stabilize the receptor and aliquots were frozen at -80 °C for later use.
Assays were incubated for ∼ 16 h at 4 °C in a final volume of 300 µl. Unbound ligand was removed by addition of 200 µl dextran/gelatin-coated charcoal, on ice, for ∼10 minutes. After centrifugation at 3000 rpm for 10 min at 4 °C, 200 µl of the supernatant fraction was counted in a liquid scintillation counter.

Kd: 1 nM
SMILES: CCCc1c(OCCCSc2ccc(CC(=O)O)cc2Cl)ccc2oc3ccccc3c12 [Example 11, 3-Chloro-4-(1-propyl-dibenzofuranyl-2-oxy-propylthio)-phenylacetic acid]
